Consider four compounds from patent US11401262B2, “Dimeric contrast agents” (BRACCO IMAGING S.P.A., priority 2015, dated 2022).

This data set can be described thus: Relaxometric properties: longitudinal relaxivity r1p measurement. The class given is physicochemical. As to conditions: per mM Gd; for r1p at 0.47 T 37° C., human plasma / r1p at 0.47 T 37° C., saline: 0.47 T (20 MHz); for r1p at 0.47 T 37° C., saline / r1p at 1.41 T 37° C., saline: physiologic solution; for r1p at 1.41 T 37° C., human plasma / r1p at 1.41 T 37° C., saline: 1.41 T (60 MHz). As for the experimental part: The relaxometric properties of some representative complex compounds according to the invention have been determined at different magnetic field strengths, e.g. including 0.47 and 1.41 T, at 37° C. and in different media (physiologic solution and human plasma) and compared with relaxivity values measured, at the same conditions, for some Gd-Complex of the market having an analogous cyclic coordination cage.
The longitudinal water proton relaxation rate (R1=1/T1) was measured at 0.47 T with a Minispec MQ-20 spectrometer (Bruker Biospin, Germany) operating at a proton Larmor frequency of 20 MHz; MR experiments at 1.41 T were performed using a Minispec MQ-60 spectrometer (Bruker Biospin, Germany) operating at a proton Larmor frequency of 60 MHz.
All test articles were used as supplied and diluted in the selected medium (physiologic solution or human plasma) by weighting the required amount of paramagnetic chelated complex to get a 5 or 10 mM starting solution.
Five different concentration samples (0.1, 0.25, 0.5, 0.75 and 1 mM) for each medium have been prepared by further dilution of the starting 5 or 10 mM solution.
Relaxivity measurements were performed at 0.47 T and 1.41 T at a preset temperature sample of 37° C., kept constant by means of a thermostatic bath connected to the sample holder of the spectrometer. The five sample solutions have been preliminary pre-heated at 37° C. in an external thermostatic bath and then left 10 minutes inside the internal bath to assure the stabilization of the temperature. Longitudinal relaxation time T1 was measured by means of a standard inversion recovery sequence, where the inversion time (TI) was varied from 10 ms to at least 5 times T1 in 15 steps. Statistical analysis (mono-exponential fitting for T1 measurement, linear fitting for the evaluation of longitudinal relaxivity) was performed by Mathematica® (Wolfram, USA). Errors on the estimated parameters were evaluated by the fitting procedure.

Regarding `O=C(O)CN1CCN(CC(=O)O)CCN(CC(O)CN(CC(=O)O)CC(O)CN2CCN(CC(=O)O)CCN(CC(=O)O)CCN(CC(=O)O)CC2)CCN(CC(=O)O)CC1` (stereo not shown), the “r1p at 0.47 T 37° C., human plasma” value was determined as 9.7 mM⁻¹ s⁻¹; the “r1p at 0.47 T 37° C., saline” value was determined as 8.3 mM⁻¹ s⁻¹; the “r1p at 1.41 T 37° C., human plasma” value was 9.2 mM⁻¹ s⁻¹; the “r1p at 1.41 T 37° C., saline” value was 8.5 mM⁻¹ s⁻¹.
As for `O=C(O)CN1CCN(CC(=O)O)CCN(CC(O)CN(CC(O)CN2CCN(CC(=O)O)CCN(CC(=O)O)CCN(CC(=O)O)CC2)CC(O)C(O)C(O)C(O)CO)CCN(CC(=O)O)CC1` (stereo not shown), the “r1p at 0.47 T 37° C., human plasma” value is 11.5 mM⁻¹ s⁻¹; the “r1p at 0.47 T 37° C., saline” value turned out to be 9.3 mM⁻¹ s⁻¹; the “r1p at 1.41 T 37° C., human plasma” value was found to be 10.8 mM⁻¹ s⁻¹; the “r1p at 1.41 T 37° C., saline” value was 9.4 mM⁻¹ s⁻¹.
As for `O=C(O)CN1CCN(CC(=O)O)CCN(CC(O)CN(CCN(CC(=O)O)CC(O)CN2CCN(CC(=O)O)CCN(CC(=O)O)CCN(CC(=O)O)CC2)CC(=O)O)CCN(CC(=O)O)CC1` (stereo not shown), the “r1p at 0.47 T 37° C., human plasma” value was determined as 10.6 mM⁻¹ s⁻¹; the “r1p at 0.47 T 37° C., saline” value amounted to 7.3 mM⁻¹ s⁻¹; the “r1p at 1.41 T 37° C., human plasma” value stood at 10.2 mM⁻¹ s⁻¹; the “r1p at 1.41 T 37° C., saline” value came to 7.5 mM⁻¹ s⁻¹.
For `O=C(O)CN1CCN(CC(=O)O)CCN(CC(O)CN(CC(O)CN2CCN(CC(=O)O)CCN(CC(=O)O)CCN(CC(=O)O)CC2)CP(=O)(O)O)CCN(CC(=O)O)CC1` (stereo not shown) [Chelate Complex 2] the same measures were 12.0 mM⁻¹ s⁻¹, 9.0 mM⁻¹ s⁻¹, 11.3 mM⁻¹ s⁻¹ and 9.3 mM⁻¹ s⁻¹.
